Test results: patent publication US6706740B2, “Fungicidal heterocyclic aromatic amides and their compositions, methods of use and preparation” (Dow AgroSciences LLC, priority 1999, dated 2004)
Where two headings read alike, the source gives them in different places.

Assays:
[1] = system: Mycosphaerella graminicola (Septoria tritici—SEPTTR); assay: In vitro fungal growth inhibition, Mycosphaerella graminicola (SEPTTR); format: cell-based; conditions: Zymoseptoria tritici, read-out: SEPTTR in vitro Growth Inhibition
Erysiphe graminis—ERYSGT = assay: Powdery Mildew of Wheat, in vivo whole plant, 24 Hour Protectant; conditions: Erysiphe, read-out: ERYSGT in vivo 1 Day Protectant
Ustilago maydis (USTIMA) = assay: microbe, parasite or virus in culture; format: cell-based; conditions: Mycosarcoma maydis, read-out: USTIMA in vitro Growth Inhibition
[2] = system: Leptosphaeria nodorum—LEPTNO; assay: Glume Blotch of Wheat, in vivo whole plant, 24 Hour Protectant; conditions: for pest or weed control at 100 ppm: Leptosphaeria, read-out: LEPTNO in vivo 1 Day Protectant
[3] = system: Stagonospora nodorum (Leptosphaeria nodorum—LEPTNO); assay: In vitro fungal growth inhibition, Stagonospora nodorum (LEPTNO); format: cell-based; conditions: Leptosphaeria, read-out: LEPTNO in vitro Growth Inhibition
[4] = system: Magnaporthe grisea (Pyricularia oryzae—PYRIOR); assay: microbe, parasite or virus in culture; format: cell-based; conditions: Pyricularia oryzae, read-out: PYRIOR in vitro Growth Inhibition
[5] = system: Phytophthora infestans (PHYTIN); assay: microbe, parasite or virus in culture; format: cell-based; conditions: Phytophthora infestans, read-out: PHYTIN in vitro Growth Inhibition
[6] = system: Puccinia recondita—PUCCRT; assay: Brown Rust of Wheat, in vivo whole plant, 24 Hour Protectant; conditions: Puccinia, read-out: PUCCRT in vivo 1 Day Protectant
[7] = system: Phytophthora infestans—PHYTIN; assay: whole plant or invertebrate; format: in vivo; conditions: Phytophthora, in Solanum lycopersicum, 24 h, read-out: PHYTIN in vivo 1 Day Protectant
Septoria tritici—SEPTTR = assay: Leaf Blotch of Wheat, in vivo whole plant, 24 Hour Protectant; conditions: for pest or weed control at 100 ppm: Zymoseptoria tritici, 24 h, control of fungal infection vs untreated plants, read-out: SEPTTR in vivo 1 Day Protectant
[8] = system: Rhizoctonia solani (RHIZSO); assay: microbe, parasite or virus in culture; format: cell-based; conditions: Rhizoctonia solani, read-out: RHIZSO in vitro Growth Inhibition
[9] = wheat plants sprayed at 100 ppm, inoculated after 24 hours, control of fungal infection vs untreated plants
[10] = wheat plants sprayed at 100 ppm, inoculated after 24 hours
[11] = 100 ppm spray, 24 hour protectant, wheat, control of fungal infection vs untreated plants
[12] = 100 ppm spray, 24 hour protectant, wheat

SMILES | inhibition at 25 ppm ([1]; 25 ppm in the growth medium) [%] | pest or weed control at 100 ppm (Erysiphe graminis—ERYSGT; [9]) [%] | inhibition at 25 ppm (Ustilago maydis (USTIMA)) [%] | pest or weed control at 100 ppm [2, 9] [%] | inhibition at 25 ppm ([3]; 25 ppm in the growth medium) [%] | inhibition at 25 ppm [4] [%] | inhibition at 25 ppm [5] [%] | pest or weed control at 100 ppm [6, 9] [%] | pest or weed control at 100 ppm [7] [%] | melting point | pest or weed control at 100 ppm (Septoria tritici—SEPTTR; [10]) [%] | inhibition at 25 ppm [8] [%] | further results
Cn1cc(C(=O)NC2CC(C)(C)CC(C)(C)C2)c(O)n1 [Compound 557] | < 80 | < 25 | < 80 | 25 to 74 | < 80 | < 80 | > 80 | 25 to 74 | < 25 | 205 to 208 °C | 25 to 74 | < 80 | 
O=C(NCc1ccccc1Cl)c1ncccc1O [Compound 218] |  |  | > 80 |  |  | > 80 | > 80 |  | < 25 | 97 to 99 °C |  | > 80 | inhibition at 25 ppm ([1]; 25 ppm in growth medium): < 80%; pest or weed control at 100 ppm (Erysiphe graminis—ERYSGT; [11]): < 25%; pest or weed control at 100 ppm [2, 11]: < 25%; inhibition at 25 ppm ([3]; 25 ppm in growth medium): > 80%; pest or weed control at 100 ppm [6, 11]: < 25%; pest or weed control at 100 ppm (Septoria tritici—SEPTTR; [12]): < 25%
Br.COc1ccnc(C(=O)NC2C[C@@H](Cc3ccccc3)O[C@@H](C)C2)c1O (stereo partly drawn) [Compound 311] |  |  | < 80 |  |  | < 80 | < 80 |  | < 25 | 156 to 158 °C |  | < 80 | inhibition at 25 ppm [1]: < 80%; pest or weed control at 100 ppm (Erysiphe graminis—ERYSGT; 24 h): < 25%; pest or weed control at 100 ppm ([2]; 24 h): 25 to 74%; inhibition at 25 ppm [3]: < 80%; pest or weed control at 100 ppm ([6]; 24 h): 25 to 74%; SEPTTR in vivo 1 Day Protectant (Septoria tritici—SEPTTR; in vivo): + +
O=C(NCc1ccccn1)c1nc(Br)ccc1O [Compound 483] | < 80 | < 25 | < 80 | < 25 | > 80 | < 80 | < 80 | < 25 | < 25 | 124 to 126 °C | < 25 | < 80 | 
Cc1ncc(C(=O)NC2CC(C)(C)CC(C)(C)C2)c(O)n1 [Compound 541] | < 80 | < 25 | < 80 | < 25 | < 80 | < 80 | < 80 | < 25 | < 25 | > 300 °C | 25 to 74 | < 80 | 
O=C(NC1CCC(O)CC1)c1ncccc1O (stereo not drawn) [Compound 208] |  |  | < 80 |  |  | < 80 | < 80 |  | 25 to 74 | 112 to 115 °C |  | < 80 | inhibition at 25 ppm ([1]; 25 ppm in growth medium): < 80%; pest or weed control at 100 ppm (Erysiphe graminis—ERYSGT; [11]): < 25%; pest or weed control at 100 ppm [2, 11]: < 25%; inhibition at 25 ppm ([3]; 25 ppm in growth medium): < 80%; pest or weed control at 100 ppm [6, 11]: 25 to 74%; pest or weed control at 100 ppm (Septoria tritici—SEPTTR; [12]): < 25%
COc1ccnc(C(=O)Nc2ccc(Oc3cc(C(F)(F)F)nc(C(F)(F)F)c3)cc2)c1O [Compound 466] | < 80 | < 25 | < 80 | 25 to 74 | > 80 | < 80 | < 80 | < 25 | < 25 | 198 to 200 °C | 25 to 74 | < 80 | 
CC1(C)CC(NC(=O)c2cncnc2O)CC(C)(C)C1 [Compound 539] | > 80 | < 25 | < 80 | 25 to 74 | < 80 | < 80 | < 80 | 25 to 74 | < 25 | 263 to 265 °C | 25 to 74 | < 80 | 
COc1ccc(C(C)NC(=O)c2nc(Br)ccc2O)cc1 (stereo not drawn) [Compound 486] | < 80 | < 25 | < 80 | < 25 | < 80 | > 80 | < 80 | < 25 | < 25 | 111 to 113 °C | < 25 | < 80 | 
COc1ccnc(C(=O)Nc2ccc(Oc3ccnc(C(F)(F)F)c3)cc2)c1O [Compound 465] | < 80 | < 25 | < 80 | 25 to 74 | < 80 | > 80 | < 80 | < 25 | < 25 | 160 to 162 °C | 25 to 74 | < 80 | 
COc1ccnc(C(=O)NC2CSCC(c3ccccc3)C2)c1O (stereo not drawn) [Compound 324] |  |  | > 80 |  |  | < 80 | > 80 |  | < 25 | 141 to 143 °C |  | > 80 | inhibition at 25 ppm ([1]; 25 ppm in growth medium): > 80%; pest or weed control at 100 ppm (Erysiphe graminis—ERYSGT; [11]): 25 to 74%; LEPTNO in vivo 1 Day Protectant [2, 11]: + +; inhibition at 25 ppm ([3]; 25 ppm in growth medium): > 80%; pest or weed control at 100 ppm [6, 11]: 25 to 74%; pest or weed control at 100 ppm (Septoria tritici—SEPTTR; [12]): 25 to 74%
CC(C)C(=O)O[C@H]1[C@H](C)OC(=O)[C@@H](NC(=O)c2cnn(C)c2O)COC(=O)[C@@H]1Cc1ccccc1 [Compound 556] | < 80 | < 25 | < 80 | 25 to 74 | < 80 | < 80 | > 80 | 25 to 74 | < 25 | 195 °C (dec.) | < 25 | < 80 | 
